EP0433526A1, “Medicine for the treatment of heart-circulatory illnesses, of arrhythmics in particular” (Richter, Peter, Prof. Dr.sc.nat., priority 1989, dated 1991)

Assays:
g-Strophantinarrhythmie = test: g-Strophanthin arrhythmia, guinea pig, i.v.; format: in vivo, Meerschweinchen
Description: Die Methode beruht auf der Erzeugung ventrikulärer Arrhythmien durch g-Strophantin, das männlichen Meerschweinchen in Urethannarkose (Körpermasse 300-350 g) in der Dosierung von 30 µg/kg/min über die Vena jugularis infundiert wurde. Bewertungskriterien sind hierbei die am EKG unter g-Strophantin zu beobachtenden ersten Extrasystolen sowie der Eintritt der Asystolie. Die Verzögerung des Auftretens dieser Ereignisse unter Substanzgabe wird berechnet und ist als Maß der antiarrhythmischen Effektivität zu werten.

Infarktgröße = test: Infarct size determination (p-NBT), rat, i.v.; format: in vivo, Ratte; conditions: for Hemmung der Infarktgröße x %: significant
Source text: Die Bestimmung der Herzinfarktgröße ist ein wichtiger Parameter zum Nachweis antiischämischer Wirkqualitäten für eine Substanz. Die hier angewendete markohistochemische Infarktgrößenbestimmung durch Inkubation mit p-Nitroblautetrazoliumsalz (p-NBT) beruht auf einem Dehydrogenasenachweis, wobei p-NBT als Wasserstoffakzeptor dient und die damit verbundene Reduktion des Salzes zu einer Farbänderung desselben führt. Die Beeinflussung der Größe des ischämischen Areals - die Ischämie wurde durch Ligatur der linken Koronararterie männlicher Wistarratten (Körpermasse 200-250 g) erzeugt - wurde nach i.v. Applikation (3 min vor Okklusion) einiger Verbindungen der allgemeinen Formel 1 untersucht. Die hier erhobenen Befunde spiegeln eindeutig die myokardprotektive Wirkkomponente dieser Verbindungen wieder. […] (Beispiel 21) bzw. das (E)-/(Z)-2-Amino-5-chlorbenzophenon-N-phenylamidinohydrazonnitrat [B] (Beispiel 3) wurden die in Tabelle 9 wiedergegebenen Resultate erhalten. TABELLE 9

Koronararterienokklusion = test: Coronary artery occlusion, rat, i.v. (early-phase arrhythmias); format: in vivo, Ratte; conditions: for Überlebensrate n. 20 min: 2 . 10⁻⁵ mol/kg i.v. 3 min before occlusion, control 33; for Normaler Sinusrhythmus / Tod durch Bradyk. / Auftreten von Arrhythmien VF / Auftreten von Arrhythmien VT / Auftreten von Arrhythmien andere: 2 . 10⁻⁵ mol/kg i.v.; for Normaler Sinusrhythmus: control 0; for Tod durch Bradyk.: control 30; for Auftreten von Arrhythmien VF: control 59; for Auftreten von Arrhythmien VT / Auftreten von Arrhythmien andere: control 82
Description: Die Untersuchungen zur Beeinflussung der Arrhythmien in der Frühphase nach Koronarokklusion erfolgten an männlichen Wistarratten (Körpermasse 200-250 g) in Pentobarbitalnarkose. Nach Ligatur der linken Koronararterie wurden die Überlebensrate sowie das Auftreten verschiedener Arrhythmieformen innerhalb 20 min nach Okklusion bewertet. Für die überlebenden Tiere erfolgten zusätzlich die Bestimmung des Zeitpunktes des Einsetzens der Arrhythmien und deren Dauer in min sowie die Zahl der ventrikulären Extrasystolen. Das Arrhythmiegeschehen in der Frühphase nach Ligatur wurde von einer Reihe Verbindungen der allgemeinen Formel 1 nach i.v.-Injektion im positiven Sinne beeinflußt. Beispielsweise wirken (Z)- bzw. (E)-2-Amino-5-chlorbenzophenonamidinohydrazonacetat (Beispiel 21 bzw. 32) dosisabhängig und stark protektiv nach i.v. Gabe (3 min vor Okklusion) von 1 . 10⁻⁵ und 2,1 . 10⁻⁵mol/kg. Die an der Aconitinarrhythmie gefundene gute antiarrhythmische Wirkung wurde damit an der Okklusion bestätigt, was durch die in Tabelle 7 zusammengestellten Ergebnisse dokumentiert werden soll. TABELLE 7

[1] = rat; for therapeutische Index (Q = LD₅₀/ED₂₀): acute test, intravenous injection
[2] = Toxicology, repeated oral dosing, minipig; conditions: per os, repeated administration
[3] = system: isoprenalininduzierten Glykogenolyse; test: Isoprenaline ischaemia, rat, i.v. and p.o. (heart glycogen content); format: in vivo, Ratte; conditions: mean of n = 10
Description: Der Myokardschutz durch verschiedene Verbindungen der allgemeinen Formel 1 wurde nach i.v. und p.o. Applikation der Verbindungen am Modell der Isoprenalinischämie der Ratte geprüft. Die für diese Untersuchungen verwendete Methode erfaßt die Veränderungen des Glykogengehaltes im Herzgewebe unter Isoprenalin und dessen Beeinflussung durch Testsubstanzen. Isoprenalin wurde dabei intraperitoneal in Dosis von 5 mg/kg verabfolgt. Die i.v. Injektion der Prüfstoffe erfolgte unmittelbar vor der Isoprenalingabe, die orale Applikation 30 min davor. Als Versuchstiere wurden männliche Wistarratten (Körpermasse 200-250 g) eingesetzt. Einige der Verbindungen zeigten eine auffallende myokardprotektive Wirksamkeit. […] Die nach i.v.- bzw. p.o.-Applikation aus je n = 10 Tieren pro Dosis beobachteten Hemmwerte (Mittelwerte) gegenüber der Isoprenalininwirkung sind in Tabelle 8 aufgeführt. Tabelle 8

[4] = Clinical trial stage I, intravenous, man
[5] = system: schnellen Na⁺-Einwärtsstromes; test: Voltage clamp on isolated adult rat heart cells
[6] = Toxicology, repeated oral dosing, rat; conditions: per os, repeated administration
[7] = 5 . 10⁻⁷ mol/kg i.v., significant vs control

For `Cl.N=C(N)N/N=C(\c1ccccc1)c1cc(Cl)ccc1N` [Beispiel 30, (E)-2-Amino-5-chlorbenzophenonamidinohydrazonhydrochlorid], the “Verzögerung des Eintritts der ersten Extrasystolen” value (g-Strophantinarrhythmie; 1,25 . 10⁻⁶ mol/kg i.v.) was 33%.

For `N=C(NN=C(c1ccccc1)c1cc(Cl)ccc1N)Nc1ccccc1.O=[N+]([O-])O` [Beispiel 3, (E)-/(Z)-2-Amino-5-chlorbenzophenon-N-phenylamidinohydrazonnitrat], the “antiarrhythmische Wirkung gegenüber der g-strophantininduzierten Extrasystolie” value (g-Strophantinarrhythmie; 1 . 10⁻⁶ mol/kg i.v.) was “+19%”, the “antiarrhythmische Wirkung gegenüber der g-strophantininduzierten Extrasystolie” value (g-Strophantinarrhythmie; 2,10 . 10⁻⁶ mol/kg i.v.) was “+35%” and the “ischämisches Gewebe x %” value (Infarktgröße; 1 . 10⁻⁷ mol/kg i.v. 3 min before occlusion, control 46,1) was 21,0%. For the same compound, the “Hemmung der Infarktgröße x %” value (Infarktgröße; 1 . 10⁻⁷ mol/kg i.v.) was 54,4 s %, the “normalen Sinusrhythmus” value (Koronararterienokklusion; 5 . 10⁻⁷ mol/kg i.v.) was 50% and the “Auftreten verschiedener Arrhythmieformen (VF)” value (Koronararterienokklusion; [7]) was 10%. For the same compound, the “Auftreten verschiedener Arrhythmieformen (VT)” value (Koronararterienokklusion; [7]) was 30%, the “Auftreten verschiedener Arrhythmieformen (andere)” value (Koronararterienokklusion; [7]) was 50% and the Überlebensrate (Koronararterienokklusion; [7]) was 80%.

With “(E)-2-Amino-5-chlorbenzophenonamidinohydrazonacetat [Beispiel 32]” the “Überlebensrate n. 20 min” value (Koronararterienokklusion) was 71 s %, the “Normaler Sinusrhythmus” value (Koronararterienokklusion) was 46 s % and the “Tod durch Bradyk.” value (Koronararterienokklusion) was 19 ns %. The “Auftreten von Arrhythmien VF” value (Koronararterienokklusion) was 8 s %, the “Auftreten von Arrhythmien VT” value (Koronararterienokklusion) was 13 s % and the “Auftreten von Arrhythmien andere” value (Koronararterienokklusion) was 54 ns %.

For `CCOc1ccccc1OCC(O)CNCCNCC(O)COc1ccccc1OCC` (centres unmarked) [Falirythmin], the “therapeutische Index (Q = LD₅₀/ED₂₀)” value [1] was 11,5.

With `CCOC(=O)Nc1ccc2c(c1)N(C(=O)CCN1CCOCC1)c1ccccc1S2` [Etmozin] the “therapeutische Index (Q = LD₅₀/ED₂₀)” value [1] was 1,8.

With `CC[C@H]1[C@@H]2C[C@H]3[C@@H]4N(C)c5ccccc5[C@]45C[C@@H]([C@@H]2[C@H]5O)N3[C@@H]1O` [Ajmalin] the “therapeutische Index (Q = LD₅₀/ED₂₀)” value [1] was 6,8.

In the case of “(Z) -2-Amino-5-chlorbenzophenonamidinohydrazonacetat [Beispiel 21]”, the “Verzögerung des Auftretens der ersten Extrasystolen” value (g-Strophantinarrhythmie; 6,25 . 10⁻⁷ mol/kg i.v. 5 min before g-strophanthin infusion, significant) is reported as 28%, the “Dosen als gut verträglich eingeschätzt” value [2] is reported as 30 mg/kg and the “x % Hemmung” value ([3]; intravenös, 1,0 . 10⁻⁵ mol/kg) is reported as 48,7%. For the same compound, the “x % Hemmung” value ([3]; intravenös, 1,5 . 10⁻⁵ mol/kg) was 37,6%, the “x % Hemmung” value ([3]; intravenös, 3,2 . 10⁻⁵ mol/kg) was 45,0% and the “x % Hemmung” value ([3]; intravenös, 3,2 . 10⁻⁶ mol/kg) was 5,9%. The “x % Hemmung” value ([3]; intravenös, 4,6 . 10⁻⁶ mol/kg) was 26,7%, the “x % Hemmung” value ([3]; intravenös, 5,0 . 10⁻⁵ mol/kg) was 69,6% and the “x % Hemmung” value ([3]; peroral, 1,0 . 10⁻⁴ mol/kg) was 25,6%. For the same compound, the “x % Hemmung” value ([3]; peroral, 1,9 . 10⁻⁴ mol/kg) was 81,4%, the “x % Hemmung” value ([3]; peroral, 3,7 . 10⁻⁴ mol/kg) was 71,4% and the “x % Hemmung” value ([3]; peroral, 5,0 . 10⁻⁴ mol/kg) was 85,3%. The “x % Hemmung” value ([3]; peroral, 7,2 . 10⁻⁵ mol/kg, 30 min before isoprenaline) was 37,2%, the “ischämisches Gewebe x %” value (Infarktgröße; 2 . 10⁻⁵ mol/kg i.v. 3 min before occlusion, control 35,0) was 15,2% and the “Hemmung der Infarktgröße x %” value (Infarktgröße; 2 . 10⁻⁵ mol/kg i.v.) was 56,6 s %. For the same compound, the “Dosierung, ab der die antiarrhythmische Aktivität ausreichend erscheint” value [4] was ≥ 0,25 mg/kg, the “Dosis, bei der die antiarrhythmische Aktivität beginnt” value [4] was 0,06 mg/kg and the “schneller Na⁺-Einwärtsstrom” value [5] was “Hemmung”. For the same compound, the “Überlebensrate n. 20 min” value (Koronararterienokklusion) was 70 s %, the “Normaler Sinusrhythmus” value (Koronararterienokklusion) was 26 s % and the “Tod durch Bradyk.” value (Koronararterienokklusion) was 25 ns %. For the same compound, the “Auftreten von Arrhythmien VF” value (Koronararterienokklusion) was 8 s %, the “Auftreten von Arrhythmien VT” value (Koronararterienokklusion) was 13 s % and the “Auftreten von Arrhythmien andere” value (Koronararterienokklusion) was 54 ns %. For the same compound, the “therapeutische Index (Q = LD₅₀/ED₂₀)” value [1] was 40,0, the “therapeutische Index Qp.o.” value ([1]; single oral administration) was 74,3 and the “Dosen als gut verträglich eingeschätzt” value [6] was 25 mg/kg.

For `CC[C@H]1C2C[C@H]3[C@@H]4N(C)c5ccccc5[C@]45C[C@@H]([C@@H]2[C@H]5O)[N@@+]3(CC(O)CN(CC)CC)[C@@H]1O` (some centres unmarked) [Tachmalcor], the “therapeutische Index (Q = LD₅₀/ED₂₀)” value [1] was 25,5.
